Data on one molecule can be found in patent US8465985B2, “Fluorescent probe” (The University of Tokyo, priority 2007, dated 2013).

The nature of the series: Spectral change of Compound 5 in association with pH change (absorption and fluorescence spectra). It is filed as physicochemical. On the procedure: For all the samples, measurements were performed in a 1:1 mixed solvent of 100 mM sodium phosphate buffered solution and acetonitrile (containing 0.1% or less of DMSO as an auxiliary solvent).
In the case of Compound 5, for example, the tricarbocyanine fluorophore is a pH-sensitive FRET receptor, the dicarbocyanine fluorophore is an FRET donor, and the compound has a property that when the nitrogen atom binding to the methine chain of the tricarbocyanine fluorophore is protonated, the peak in the excitation spectrum shifts from around 660 nm to the longer wavelength side in connection with decrease of electron donating ability. […] Namely, by dissolving Compound 5 in a test sample, performing excitation with a light of 640 nm, and measuring ratio of fluorescence intensities at 660 nm and 750 nm upon excitation, it becomes possible to detect pH by the ratio method. Compound 5 is especially useful as a pH fluorescent probe for measuring pH in live cells or live tissues, in particular, in deep part tissues, under a physiological condition.
In a 1:1 mixed solution of 100 mmol/L phosphate buffer (pH 1.2, 2.1, 3.3, 3.9, 5.0, 6.0, 6.8) and acetonitrile (containing 0.1% or less of DMSO as an auxiliary solvent), absorption spectra and fluorescence spectra (excitation wavelength: 640 nm) of Compound 5 were measured. It can be understood that with elevation of pH, the absorbance around 650 nm increased, and the absorption spectrum changed. Moreover, it can also be understood that in the fluorescence spectrum, with elevation of pH, the fluorescence intensity decreased around 660 nm, and increased around 750 nm. Therefore, pH change can be accurately measured by using the ratio method based on one-wavelength excitation/ two-wavelength fluorescence measurement. […] The fluorescence intensities at 660 nm and 750 nm linearly change from pH 4 to 6, and accordingly, pH of this range can be measured by using Compound 5.

[1] abbreviates: excitation 640 nm, 1:1 phosphate buffer (pH 1.2-6.8) and acetonitrile.

On to `CN1/C(=C/C=C2\CCCC(/C=C/C3=[N+](C)c4ccccc4C3(C)C)=C2NCCCCCC(=O)N[C@H]2CC[C@H](NC(=O)CC[N+]3=C(/C=C/C=C/C=C4/N(CCC(=O)O)c5ccccc5C4(C)C)C(C)(C)c4ccccc43)CC2)C(C)(C)c2ccccc21` [Compound 5], for which, under “1:1 100 mmol/L phosphate buffer (pH 1.2-6.8) and acetonitrile”, the “change of absorbance around 650 nm with elevation of pH” value is reported as “increased”. Besides, under setting [1], the “change of fluorescence intensity around 660 nm with elevation of pH” value was “decreased” and the “change of fluorescence intensity around 750 nm with elevation of pH” value is listed as “increased”. Moreover, under “excitation light of 640 nm, nitrogen atom not protonated”, the “fluorescence wavelength of the tricarbocyanine fluorophore (FRET receptor)” value is given as “around 750 nm”. In addition, the “fluorescence wavelength peak of the dicarbocyanine fluorophore (FRET donor)” value (excitation light of 640 nm, nitrogen atom protonated) is given as “around 660 nm”.
